{"source": "patent US10093642B2", "about": "“Multitarget hedgehog pathway inhibitors and uses thereof” (UNIVERSITA' DEGLI STUDI DI SIENA, priority 2013, dated 2018)", "key": {"MEF-Ptch−/− cells": {"test_system": "MEF-Ptch−/− cells", "experiment": "Gli1 mRNA (quantitative RT-PCR) and protein (western blot) in MEF-Ptch−/− cells", "type": "cell-based, mouse", "settings": "different concentrations, 48 h", "protocol": "FIG. 8. […] (A) Gli1 mRNA levels were determined by quantitative RT-PCR, normalizing to HPRT (Hypoxanthine-guanine phosphoribosyl transferase) expression. Error bars indicate SD.\nTo analyze the antagonist properties of Glabrescione B under more physiological conditions, the inventors used MEF-Ptch^−/− cells, embryo fibroblasts derived from Ptch^−/− mouse, in which the activation of Hh signaling is consequence of Ptch1 deletion. Since Patched acts as upstream repressor of SMO, inhibition of the Hedgehog pathway from Patched is prevented and the Hedgehog pathway is constitutively activated in this cell lines, which turned out to be a reliable cellular model for studying the effect of Hedgehog inhibitors. […]\nIn order to determine whether Glabrescione B regulates cells with a constitutive Hh pathway activation, the MEF-Ptch^−/− cell line (a kind gift by M. Scott, Stanford University, CA, in which the activation of Hh signaling is consequence of Ptch1 deletion, Goodrich, L. V. et al, 1997) was treated with Glabrescione B at different concentrations and the effect on expression of Hh/Gli1 pathway was determined by quantitative RT-PCR and western blot analysis. […] Quantitative PCR (QPCR) analysis of Gli1 mRNA expression was performed on each cDNA sample using the ABI Prism 7900 Sequence Detection System employing Assay-on-Demand Reagents (Life Technologies). […]"}, "Jun/AP1activation": {"test_system": "Jun/AP1activation", "experiment": "Selectivity: unrelated signal transduction pathway Jun/AP1 activation", "type": "cell-based"}, "[1]": {"test_system": "Cancer stem cells (CSCs) isolated from murine Ptch+/− MB", "experiment": "Gli1 mRNA in MB cancer stem cells (neurospheres)", "type": "cell-based", "settings": "48 h, quantitative RT-PCR", "protocol": "FIG. 13. […] Gli1 mRNA levels were determined by quantitative RT-PCR using HPRT as normalizer.\nHh activity preferentially associates to stemness features. For this reason, the Hh pathway antagonist Glabrescione B has also been investigated for its ability to modulate the behavior of MB cancer stem cells (CSCs).\nIt has been described that Hh activity preferentially associates to stemness features. In order to determine whether Glabrescione B also modulates the behavior of MB cancer stem cells (CSCs), neurospheres isolated from murine Ptch^+/− MB were treated with Glabrescione B for 48 h and the levels of Gli1 were determined by quantitative RT-PCR. Murine MBs were isolated from Ptch1^+/− mice (Goodrich, Milenkivic et al. 1997). Tissues were collected in HBSS supplemented with 0.5% glucose and penicillin-streptomycin, grossly triturated with serological pipette and treated with DNAse I to a final concentration of 0.04% for 20 min. Finally, cells aggregates were mechanically dissociated using pipettes of decreasing bore size to obtain a single cell suspension. […]"}, "Jurkat T leukemia cells": {"test_system": "Jurkat T leukemia cells", "experiment": "Effect on Hh-independent Jurkat cells", "type": "cell-based"}, "Ptch1+/− MB allografts": {"test_system": "Ptch1+/− MB allografts", "experiment": "Ptch1+/− MB allograft in nude mice", "type": "in vivo, BALB/c nude mice", "settings": "18 days", "from_the_text": "FIG. 17. Glabrescione B inhibits Gli1-dependent MB tumor growth in vivo (Ptch1^+/− MB allografts). (A) Change of tumor volume during Glabrescione B (GlaB) or vehicle (CTR) treatment period (days 18). […] (C) qRT-PCR of Gli1 and Ptch1 mRNA expression levels normalized with endogenous control β2-microglobulin and HPRT.\nTherefore, to verify the Glabrescione B efficacy to inhibit Hh-dependent tumor cell growth in vivo, we turned to an allograft model of MB cells. Spontaneous Medulloblastomas from Ptch1^+/− mice were isolated, minced, pipetted to obtain a single-cell suspension and grafted s.c. at the posterior flank of female BALB/c nude mice (nu/nu) (Charles River Laboratories, Lecco, Italy). Tumors were grown until a median size of ˜100 mm^3. Animals were randomly divided into two groups (n=6) and treated with solvent only (2-hydroxypropyl-β-cyclodextrin:ethanol, 3:1) or Glabrescione B in solvent (75 μmol/Kg) for 18 days (2-hydroxypropyl-β-cyclodextrin was purchased from Sigma Aldrich, St. Louis, Mo., USA). 2×10^6 ASZ001 BCC cells were resuspended in an equal volume of 154CF medium and Matrigel (BD Biosciences, Heidelberg, Germany) and injected s.c. at the posterior flank of female NOD/SCID mice (Charles River Laboratories, Lecco, Italy), as previously described (Eberl et al, 2012). Tumors were grown until a median size of ˜200 mm^3. Animals were randomly divided into two groups (n=6) and treated with solvent only (2-hydroxypropyl-β-cyclodextrin:ethanol, 3:1) or Glabrescione B in solvent (100 μmol/Kg) for 18 days. Tumor volumes change was calculated by the formula length×width×0.5×(length+width) (Lauth et al, 2007).\nNude mice were grafted with spontaneous primary MB from Ptch1^+/− mice and treated every second day with s.c. injections of Glabrescione B at a concentration of 75 μmol/Kg or solvent only (n=6 for each group)."}}}
{"molecule": "COc1cc(OC)c2c(=O)c(-c3ccc(OCC=C(C)C)c(OCC=C(C)C)c3)coc2c1", "note": "[Glabrescione B, 3-(3′,4′-bis(3-methylbut-2-enyloxy)phenyl)-5,7-dimethoxy-4H-chromen-4-one]", "values": [{"measurement": "Gli1 mRNA and protein levels", "setting": "MEF-Ptch−/− cells", "result": "strongly reduced mRNA and protein levels of Gli1"}, {"measurement": "inhibition at 30 µM", "setting": "Jun/AP1activation", "result": 0, "unit": "%"}, {"measurement": "Gli1 mRNA levels in MB CSCs", "setting": "[1]", "result": "reduction of Gli1 mRNA levels"}, {"measurement": "effect on Jurkat cells", "setting": "Jurkat T leukemia cells", "result": "no effect"}, {"measurement": "tumor mass", "setting": "Ptch1+/− MB allografts; 75 μmol/Kg s.c. every second day", "result": "significantly suppressed tumor mass"}, {"measurement": "Gli1 mRNA levels in tumors", "setting": "Ptch1+/− MB allografts; 75 μmol/Kg s.c.", "result": "reduction of Gli1 mRNA levels"}, {"measurement": "Ki67 staining in tumors", "setting": "Ptch1+/− MB allografts; 75 μmol/Kg s.c.", "result": "decreased Ki67 staining"}]}
